Measured values published in ChEMBL document CHEMBL3046687, “New thiazolidine-2,4-diones as antimicrobial and cytotoxic agent” (Med Chem Res, 2012).
In brackets after ≈: the same amount, converted by molar mass.

Key:
HeLa = assay: Cytotoxicity against Homo sapiens (human) HeLa cells after 24 hr by MTT assay; format: functional, cell-based
Escherichia coli = assay: Antimicrobial activity against Escherichia coli ATCC 35218 after 24 hr by two-fold serial dilution method; format: functional; conditions: ATCC 35218, 24 h
MCF7 = assay: Cytotoxicity against Homo sapiens (human) MCF7 cells after 24 hr by MTT assay; format: functional, cell-based; conditions: MCF7, 24 h
A549 = assay: Cytotoxicity against Homo sapiens (human) A549 cells after 24 hr by MTT assay; format: functional, cell-based; conditions: A549, 24 h
Cryptococcus neoformans = assay: Antimicrobial activity against Cryptococcus neoformans clinical isolate after 48 hr by two-fold serial dilution method; format: functional
Candida albicans = assay: Antimicrobial activity against Candida albicans ATCC 2091 after 48 hr by two-fold serial dilution method; format: functional; conditions: ATCC 2091, 48 h
Aspergillus flavus = assay: Antimicrobial activity against Aspergillus flavus NCIM 524 after 48 hr by two-fold serial dilution method; format: functional; conditions: NCIM 524, 48 h
HT-29 = assay: Cytotoxicity against Homo sapiens (human) HT-29 cells after 24 hr by MTT assay; format: functional, cell-based; conditions: HT-29, 24 h
Aspergillus niger = assay: Antimicrobial activity against Aspergillus niger ATCC 6275 after 48 hr by two-foldserial dilution method; format: functional; conditions: ATCC 6275, 48 h
Staphylococcus aureus = assay: Antimicrobial activity against Staphylococcus aureus ATCC 25923 after 24 hr by two fold serial dilution method; format: functional; conditions: ATCC 25923, 24 h
Pseudomonas aeruginosa = assay: Antimicrobial activity against Pseudomonas aeruginosa ATCC 25619 after 24 hr by two-fold serial dilution method; format: functional; conditions: ATCC 25619, 24 h
Enterococcus faecalis = assay: Antimicrobial activity against Enterococcus faecalis ATCC 35550 after 24 hr by two-fold serial dilution method; format: functional; conditions: ATCC 35550, 24 h

SMILES	MIC (Escherichia coli) [µg/mL]	MIC (Cryptococcus neoformans) [µg/mL]	MIC (Candida albicans) [µg/mL]	MIC (Aspergillus flavus) [µg/mL]	MIC (Aspergillus niger) [µg/mL]	MIC (Staphylococcus aureus) [µg/mL]	MIC (Pseudomonas aeruginosa) [µg/mL]	MIC (Enterococcus faecalis) [µg/mL]	IC50 (HeLa) [µM]	IC50 (MCF7) [µM]	IC50 (A549) [µM]	IC50 (HT-29) [µM]
COc1ccc(/C=C2\SC(=O)N(Cc3ccc(C(=O)O)cc3)C2=O)cc1	32 (≈ 86.6 µM)	16 (≈ 43.3 µM)	16 (≈ 43.3 µM)	32 (≈ 86.6 µM)	32 (≈ 86.6 µM)	16 (≈ 43.3 µM)	32 (≈ 86.6 µM)	16 (≈ 43.3 µM)	40	48	44	44
O=C(O)c1ccc(CN2C(=O)S/C(=C\c3cccnc3)C2=O)cc1	32 (≈ 94 µM)	32 (≈ 94 µM)	32 (≈ 94 µM)	16 (≈ 47 µM)	16 (≈ 47 µM)	128 (≈ 376 µM)	32 (≈ 94 µM)	128 (≈ 376 µM)	88	100	75	90
O=C(O)c1ccc(CN2C(=O)S/C(=C\c3ccco3)C2=O)cc1	16 (≈ 48.6 µM)	64 (≈ 194 µM)	64 (≈ 194 µM)	32 (≈ 97.2 µM)	32 (≈ 97.2 µM)	32 (≈ 97.2 µM)	16 (≈ 48.6 µM)	64 (≈ 194 µM)	80	90	76	94
Cn1cccc1/C=C1\SC(=O)N(Cc2ccc(C(=O)O)cc2)C1=O	16 (≈ 46.7 µM)	32 (≈ 93.5 µM)	32 (≈ 93.5 µM)	16 (≈ 46.7 µM)	16 (≈ 46.7 µM)	64 (≈ 187 µM)	16 (≈ 46.7 µM)	64 (≈ 187 µM)	90	70	80	88
CC1(C)S[C@@H]2[C@H](NC(=O)[C@H](N)c3ccccc3)C(=O)N2[C@H]1C(=O)O [AMPICILLIN]						2 (≈ 5.72 µM)		2 (≈ 5.72 µM)				
CC(=O)N1CCN(c2ccc(OCC3COC(Cn4ccnc4)(c4ccc(Cl)cc4Cl)O3)cc2)CC1 (configuration not stated) [KETOCONAZOLE]		2 (≈ 3.76 µM)	2 (≈ 3.76 µM)	1 (≈ 1.88 µM)	2 (≈ 3.76 µM)							

Further lines, with some results ahead:

MIC (Escherichia coli) [µg/mL]	MIC (Cryptococcus neoformans) [µg/mL]	MIC (Candida albicans) [µg/mL]	MIC (Aspergillus flavus) [µg/mL]	MIC (Aspergillus niger) [µg/mL]	MIC (Staphylococcus aureus) [µg/mL]	MIC (Pseudomonas aeruginosa) [µg/mL]	MIC (Enterococcus faecalis) [µg/mL]	SMILES	IC50 (HeLa) [µM]	IC50 (MCF7) [µM]	IC50 (A549) [µM]	IC50 (HT-29) [µM]
4 (≈ 11.8 µM)	16 (≈ 47.1 µM)	16 (≈ 47.1 µM)	32 (≈ 94.3 µM)	16 (≈ 47.1 µM)	128 (≈ 377 µM)	8 (≈ 23.6 µM)	64 (≈ 189 µM)	O=C(O)c1ccc(CN2C(=O)S/C(=C\c3ccccc3)C2=O)cc1	72	100	90	88
4 (≈ 9.56 µM)	16 (≈ 38.3 µM)	16 (≈ 38.3 µM)	16 (≈ 38.3 µM)	32 (≈ 76.5 µM)	128 (≈ 306 µM)	4 (≈ 9.56 µM)	128 (≈ 306 µM)	O=C(O)c1ccc(CN2C(=O)S/C(=C\c3ccc(Br)cc3)C2=O)cc1	38	48	42	30
4 (≈ 11.2 µM)	4 (≈ 11.2 µM)	2 (≈ 5.6 µM)	4 (≈ 11.2 µM)	4 (≈ 11.2 µM)	2 (≈ 5.6 µM)	4 (≈ 11.2 µM)	4 (≈ 11.2 µM)	O=C(O)c1ccc(CN2C(=O)S/C(=C\c3ccc(F)cc3)C2=O)cc1	34	38	36	32
16 (≈ 45.3 µM)	64 (≈ 181 µM)	64 (≈ 181 µM)	32 (≈ 90.5 µM)	64 (≈ 181 µM)	32 (≈ 90.5 µM)	16 (≈ 45.3 µM)	32 (≈ 90.5 µM)	Cc1ccc(/C=C2\SC(=O)N(Cc3ccc(C(=O)O)cc3)C2=O)cc1	68	100	78	72
8 (≈ 21.7 µM)	16 (≈ 43.3 µM)	32 (≈ 86.6 µM)	32 (≈ 86.6 µM)	32 (≈ 86.6 µM)	16 (≈ 43.3 µM)	8 (≈ 21.7 µM)	16 (≈ 43.3 µM)	COc1cccc(/C=C2\SC(=O)N(Cc3ccc(C(=O)O)cc3)C2=O)c1	48	58	55	48
8 (≈ 18.6 µM)	4 (≈ 9.31 µM)	2 (≈ 4.66 µM)	4 (≈ 9.31 µM)	4 (≈ 9.31 µM)	8 (≈ 18.6 µM)	8 (≈ 18.6 µM)	8 (≈ 18.6 µM)	COc1cc(/C=C2\SC(=O)N(Cc3ccc(C(=O)O)cc3)C2=O)cc(OC)c1OC	30	30	36	32
16 (≈ 47 µM)	16 (≈ 47 µM)	32 (≈ 94 µM)	16 (≈ 47 µM)	32 (≈ 94 µM)	64 (≈ 188 µM)	16 (≈ 47 µM)	64 (≈ 188 µM)	O=C(O)c1ccc(CN2C(=O)S/C(=C\c3ccccn3)C2=O)cc1	62	90	80	78
16 (≈ 47 µM)	16 (≈ 47 µM)	16 (≈ 47 µM)	32 (≈ 94 µM)	32 (≈ 94 µM)	32 (≈ 94 µM)	16 (≈ 47 µM)	16 (≈ 47 µM)	O=C(O)c1ccc(CN2C(=O)S/C(=C\c3ccncc3)C2=O)cc1	60	84	72	80
8 (≈ 23.2 µM)	32 (≈ 92.6 µM)	32 (≈ 92.6 µM)	8 (≈ 23.2 µM)	8 (≈ 23.2 µM)	16 (≈ 46.3 µM)	16 (≈ 46.3 µM)	32 (≈ 92.6 µM)	O=C(O)c1ccc(CN2C(=O)S/C(=C\c3cccs3)C2=O)cc1	76	76	80	88
